In US6277854A, “Tricyclic antitumor farnesyl protein transferase inhibitors” (Schering Corporation, priority 1999, dated 2001):

target: farnesyl protein transferase; experiment: In vitro enzyme assay: inhibition of farnesyl protein transferase (FPT), [3H]farnesyl transfer to Ras-CVLS; assay type: biochemical, rat (brain); human (expressed in E. coli); conditions: not given
Text: 1. In vitro enzyme assays: Inhibition of famesyl protein transferase and geranylgeranyl protein transferase.
Farnesyl protein transferase (FPT) was partially purified from rat brain by ammonium sulfate fractionation followed by Q-Sepharose (Pharmacia, Inc.) anion exchange chromatography essentially as described by Yokoyama et al (Yokoyama, K., et al., (1991), A protein geranylgeranyltransferase from bovine brain: Implications for protein prenylation specificity, Proc. Natl. Acad. Sci USA 88: 5302-5306, the disclosure of which is incorporated herein by reference thereto). Human famesyl protein transferase was also expressed in E. coli, using cDNA clones encoding both the a and b subunits. The methods used were similar to those published (Omer, C. et al., (1993), Characterization of recombinant human famesyl protein transferase: Cloning, expression, farnesyl diphosphate binding, and functional homology with yeast prenyl-protein transferases, Biochemistry 32:5167-5176). Human famesyl protein transferase was partially-purified from the soluble protein fraction of E. coli as described above. […] Two forms of val^12 -Ha-Ras protein were prepared as substrates for these enzymes, differing in their carboxy terminal sequence. One form terminated in cysteine-valine-leucine-serine (Ras-CVLS) the other in cystein-valine-leucine-leucine (Ras-CVLL). Ras-CVLS is a substrate for the famesyl protein transferase while Ras-CVLL is a substrate for geranylgeranyl protein transferase I. The cDNAs encoding these proteins were constructed so that the proteins contain an amino-terminal extension of 6 histidine residues. Both proteins were expressed in Escherichia coli and purified using metal chelate affinity chromatography. The radiolabelled isoprenyl pyrophosphate substrates, [^3 H]farnesyl pyrophosphate and [^3 H]geranylgeranyl pyrophosphate, were purchased from DuPon/New England Nuclear.
Several methods for measuring farnesyl protein transferase activity have been described (Reiss et al 1990, Cell 62: 81; Schaber et al 1990, J. Biol. Chem. 265: 14701; Manne et al 1990, PNAS 87: 7541; and Barbacid & Manne 1993, U.S. Pat. No. 5,185,248). […] The reaction was allowed to proceed for 30 minutes at room temperature and then stopped with 0.5 ml of 4% sodium dodecyl sulfate (SDS) followed by 0.5 ml of cold 30% TCA. Samples were allowed to sit on ice for 45 minutes and precipitated Ras protein was then collected on GF/C filter paper mats using a Brandel cell harvester. Filter mats were washed once with 6% TCA, 2% SDS and radioactivity was measured in a Wallac 1204 Betaplate BS liquid scintillation counter. Percent inhibition was calculated relative to the DMSO vehicle control.

IC50 [nM] | Structure (SMILES)
380 | CN(C)CC(=O)N1CCC(C2c3ncc(Br)cc3CCc3cc(Cl)cc(Cl)c32)CC1 (single isomer, unassigned) [Example 4]
56 | CN(C)CCC(=O)N1CCC(C2c3ncc(Br)cc3CCc3cc(Cl)cc(Cl)c32)CC1 (single isomer, unassigned) [Example 5]
22 | CN(C)CCCCC(=O)N1CCC(C2c3ncc(Br)cc3CCc3cc(Cl)cc(Cl)c32)CC1 (single isomer, unassigned) [Example 7]
14 | CCN(CC)CCC(=O)N1CCC(C2c3ncc(Br)cc3CCc3cc(Cl)cc(Cl)c32)CC1 (single isomer, unassigned) [Example 8]
6 | O=C(CCN1CCCCC1)N1CCC(C2c3ncc(Br)cc3CCc3cc(Cl)cc(Cl)c32)CC1 (single isomer, unassigned) [Example 9]
19 | O=C(CN1CCCC1=O)N1CCC(C2c3ncc(Br)cc3CCc3cc(Cl)cc(Cl)c32)CC1 (single isomer, unassigned) [Example 10]
76 | O=C(CCN1C(=O)CCC1=O)N1CCC(C2c3ncc(Br)cc3CCc3cc(Cl)cc(Cl)c32)CC1 (single isomer, unassigned) [Example 11]
61 | NC(=O)CCC(=O)N1CCC(C2c3ncc(Br)cc3CCc3cc(Cl)cc(Cl)c32)CC1 (single isomer, unassigned) [Example 12]
15 | CN(C)C(=O)CCC(=O)N1CCC(C2c3ncc(Br)cc3CCc3cc(Cl)cc(Cl)c32)CC1 (single isomer, unassigned) [Example 13]
16 | O=C(CCC(=O)N1CCC(C2c3ncc(Br)cc3CCc3cc(Cl)cc(Cl)c32)CC1)N1CCCC1 (single isomer, unassigned) [Example 14]
63 | CC(=O)NCCCC(=O)N1CCC(C2c3ncc(Br)cc3CCc3cc(Cl)cc(Cl)c32)CC1 (single isomer, unassigned) [Example 15]
> 100 | O=C(NCCCC(=O)N1CCC(C2c3ncc(Br)cc3CCc3cc(Cl)cc(Cl)c32)CC1)Nc1ccccc1 (single isomer, unassigned) [Example 16]
620 | O=C(CCCCCN1C(=O)C=CC1=O)N1CCC(C2c3ncc(Br)cc3CCc3cc(Cl)cc(Cl)c32)CC1 (single isomer, unassigned) [Example 23]
58 | NC(=O)NCCCC(=O)N1CCC(C2c3ncc(Br)cc3CCc3cc(Cl)cc(Cl)c32)CC1 (single isomer, unassigned; (+)) [Example 31]
~100 | O=C(CCCC(=O)N1CCC(C2c3ncc(Br)cc3CCc3cc(Cl)cc(Cl)c32)CC1)Nc1cccnc1 (centres unmarked) [Example 17]
540 | CC(C)(C)OC(=O)NCC(=O)N1CCC(C2c3ncc(Br)cc3CCc3cc(Cl)cc(Cl)c32)CC1 (centres unmarked) [Example 26]
28 | CCOC(=O)CC(=O)N1CCC([C@H]2c3ncc(Br)cc3CCc3cc(Cl)cc(Br)c32)CC1 [Example 45, (+)-ETHYL 4-(3,10-DIBROMO-8-CHLORO-6,11-DIHYDRO-5H-BENZO[5,6]CYCLO-HEPTA[1,2-b]PYRIDIN-11(R)-YL)-BETA-OXO-1-PIPERIDININE PROPANOATE]
78 | O=C(O)CC(=O)N1CCC([C@H]2c3ncc(Br)cc3CCc3cc(Cl)cc(Br)c32)CC1 [Example 46, (+)-SODIUM 4-(3,10-DIBROMO-8-CHLORO-6,11-DIHYDRO-5H-BENZO[5,6]CYCLO-HEPTA[1,2-b]PYRIDIN-11(R)-YL)-BETA-OXO-1-PIPERIDININE PROPANOATE]
68 | NC(=O)CC(=O)N1CCC([C@H]2c3ncc(Br)cc3CCc3cc(Cl)cc(Br)c32)CC1 [Example 47, 4-(3,10-DIBROMO-8-CHLORO-6,11-DIHYDRO-5H-BENZO[5,6]CYCLO-HEPTA[1,2-b]PYRIDIN-11(R)-YL)-BETA-OXO -1-PIPERIDININE PROPANAMIDE]
9 | COC(=O)CCC(=O)N1CCC([C@H]2c3ncc(Br)cc3CCc3cc(Cl)cc(Br)c32)CC1 [Example 48, (+)-METHYL 4-(3,10-DIBROMO-8-CHLORO-6,11-DIHYDRO-5H-BENZO[5,6]CYCLO-HEPTA[1,2-b]PYRIDIN-11(R)-YL)-GAMMA-OXO -1-PIPERIDININE BUTANOATE]
270 | O=C(O)CCC(=O)N1CCC([C@H]2c3ncc(Br)cc3CCc3cc(Cl)cc(Br)c32)CC1 [Example 49, (+)-SODIUM 4-(3,10-DIBROMO-B-CHLORO-6,11-DIHYDRO-5H-BENZO[5,6]CYCLO-HEPTA[1,2-b]PYRIDIN-11(R)-YL)-GAMMA-OXO-1-PIPERIDININE BUTANOATE]
14 | NC(=O)CCC(=O)N1CCC([C@H]2c3ncc(Br)cc3CCc3cc(Cl)cc(Br)c32)CC1 [Example 50, (+)-4-(3,10-DIBROMO-8-CHLORO-6,11-DIHYDRO-5H-BENZO[5,6]CYCLO-HEPTA[1,2-b]PYRIDIN-11(R)-YL)-GAMMA-OXO -1-PIPERIDININE BUTANAMIDE]

Structure (SMILES) | IC50 [nM]
NC(=O)N1CCC(C2c3ncc(Br)cc3CCc3cc(Cl)cc(Cl)c32)CC1 (single isomer, unassigned; (+)) [Example 1, (+)-4-(3-BROMO-8,10-DICHLORO-6,11-DIHYDRO-5H-BENZO[5,6]-CYCLOHEPTA[1 ,2-b]PYRIDIN-11-YL)-1-PIPERIDINE CARBOXAMIDE] | 390
CN(C)CCCC(=O)N1CCC(C2c3ncc(Br)cc3CCc3cc(Cl)cc(Br)c32)CC1 (single isomer, unassigned; (+)) [Example 2, (+)-4-(3,10-DIBROMO-8-CHLORO-6,11-DIHYDRO-5H-BENZO[5,6]-CYCLO-HEPTA[1,2-b]PYRIDIN-11-YL)-1-[4-(DIMETHYLAMINO)-1-OXOBUTYL]PIPERIDINE] | 4
NCC(=O)N1CCC(C2c3ncc(Br)cc3CCc3cc(Cl)cc(Cl)c32)CC1 (single isomer, unassigned; (+)) [Example 3, (+)-1-(AMINOACETYL)-4-(3-BROMO-8,10-DICHLORO-6,11-DIHYDRO-5H-BENZO[5,6]CYCLO-HEPTA[1,2-b]PYRIDIN-11-YL) PIPERIDINE] | 1100
NCCCC(=O)N1CCC(C2c3ncc(Br)cc3CCc3cc(Cl)cc(Cl)c32)CC1 (single isomer, unassigned; (+)) [Example 27, (+)-1-(4-AMINO-1-OXOBUTYL)-4-(3-BROMO-8,10-DICHLORO-6,11-DIHYDRO-5H-BENZO[5,6]CYCLO-HEPTA[1,2-b]PYRIDIN-11-YL) PIPERIDINE] | 130

same assay, conditions: @ 0.06 μg/μL

FPT inhibition [%] | Structure (SMILES)
21 | O=C(CCCC(=O)N1CCC(C2c3ncc(Br)cc3CCc3cc(Cl)cc(Cl)c32)CC1)Nc1ccccc1 (single isomer, unassigned) [Example 19]
35 | O=C(CCCC(=O)N1CCC(C2c3ncc(Br)cc3CCc3cc(Cl)cc(Cl)c32)CC1)NCc1ccccc1 (single isomer, unassigned) [Example 21]
20 | O=C(NCCCC(=O)N1CCC(C2c3ncc(Br)cc3CCc3cc(Cl)cc(Cl)c32)CC1)c1ccncc1 (single isomer, unassigned) [Example 24]
41 | O=C(NCCCCC(=O)N1CCC(C2c3ncc(Br)cc3CCc3cc(Cl)cc(Cl)c32)CC1)c1ccccc1 (centres unmarked) [Example 22]

same assay, conditions: @ 88 nM

Structure (SMILES) | FPT inhibition [%]
O=C(CCCN1C(=O)c2ccccc2C1=O)N1CCC(C2c3ncc(Br)cc3CCc3cc(Cl)cc(Br)c32)CC1 (single isomer, unassigned; (+)) [Example 32, (+)-4-(3,10-DIBROMO-8-CHLORO-6,11-DIHYDRO-5H-BENZO[5,6]CYCLO-HEPTA[1,2-b]PYRIDIN-11-YL)-1-[4-(1,3-DIHYDRO-1,3-DIOXO-2H-ISOINDOL-2-YL)-1-OXOBUTYL]PIPERIDINE] | 12

same assay, conditions: @ 92 nM

FPT inhibition [%] | Structure (SMILES)
0 | O=C(CCCC(=O)N1CCC(C2c3ncc(Br)cc3CCc3cc(Cl)cc(Cl)c32)CC1)Nc1ccc(Cl)cc1 (single isomer, unassigned) [Example 20]

same assay, conditions: @ 93 nM

FPT inhibition [%] | Structure (SMILES)
9 | O=C(NCCCC(=O)N1CCC(C2c3ncc(Br)cc3CCc3cc(Cl)cc(Cl)c32)CC1)c1cccnc1 (single isomer, unassigned) [Example 18]

same assay, conditions: @ 93.4 nM

Structure (SMILES) | FPT inhibition [%]
O=C(CCCN1C(=O)c2ccncc2C1=O)N1CCC(C2c3ncc(Br)cc3CCc3cc(Cl)cc(Cl)c32)CC1 (centres unmarked) [Example 33, 4-(8,10-DICHLORO-3-BROMO-6,11-DIHYDRO-5H-BENZO[5,6]CYCLO-HEPTA[1,2-b]PYRIDIN-11-YL)-1-[4-(1,3-DIHYDRO-1,3-DIOXO-2H-PYRROLO-[3,4c]-PYRIDINE-2-YL)-1-OXOBUTYL]PIPERIDINE] | 38.7

same assay, conditions: @ 330 nM

FPT inhibition [%] | Structure (SMILES)
47 | CC(C)(C)OC(=O)NCCCC(=O)N1CCC(C2c3ncc(Br)cc3CCc3cc(Cl)cc(Cl)c32)CC1 (centres unmarked) [Example 25]
